Measurements reported in ChEMBL document CHEMBL4229381, “New cytokinin derivatives possess UVA and UVB photoprotective effect on human skin cells and prevent oxidative stress” (Eur J Med Chem, 2018).
Activity calls are given as the source filed them. The rule behind the calls is not given here.

Experiments:
[1] = Cytotoxicity in human HaCaT cells assessed as cell viability at 15.6 uM after 24 hrs by neutral red uptake assay relative to control; assay type: cell-based; conditions: read-out: Activity
[2] = Cytotoxicity in human HaCaT cells assessed as cell viability at 3.9 uM after 24 hrs by neutral red uptake assay relative to control; assay type: cell-based; conditions: read-out: Activity
[3] = Cytotoxicity in human HaCaT cells assessed as cell viability at 125 uM after 24 hrs by neutral red uptake assay relative to control; assay type: cell-based; conditions: read-out: Activity
[4] = test system: Amaranthus caudatus; experiment: Growth promoting activity in Amaranthus caudatus var. atropurpurea seeds by measuring betacyanin at 10^-4 mol/L after 48 hrs relative to control; assay type: functional
[5] = Phototoxicity in human HaCaT cells assessed as cell viability at 15.6 uM preincubated for 60 mins followed by 7.5 J/cm2 UVA irradiation and measured after 24 hrs by neutral red uptake assay relative to control; assay type: cell-based; conditions: read-out: Activity
[6] = Cytotoxicity in human HaCaT cells assessed as cell viability at 31.3 uM after 24 hrs by neutral red uptake assay relative to control; assay type: cell-based; conditions: read-out: Activity
[7] = Stability of the compound in pH 3 solution at 10^-4 M after 24 hrs by HPLC analysis; assay type: physicochemical; conditions: read-out: Stability
[8] = test system: Caenorhabditis elegans; experiment: Protection against juglone-induced oxidative stress in wild type Caenorhabditis elegans N2 at 100 uM preincubated for 3 days followed by juglone addition and measured after 4 hrs by inverted microscopic analysis; assay type: functional, organism-based
[9] = Phototoxicity in human NHDF cells assessed as cell viability at 15.6 uM preincubated for 60 mins followed by 5 J/cm2 UVA irradiation and measured after 24 hrs by neutral red uptake assay relative to control; assay type: cell-based; conditions: read-out: Activity
[10] = test system: HaCaT; experiment: Cytotoxicity in human HaCaT cells assessed as reduction in cell viability at 50 uM after 24 hrs by resazurin dye-based fluorescence assay relative to control
[11] = Stability of the compound in pH 5 solution at 10^-4 M after 24 hrs by HPLC analysis; assay type: physicochemical; conditions: read-out: Stability
[12] = Cytotoxicity in human HaCaT cells assessed as cell viability at 62.5 uM after 24 hrs by neutral red uptake assay relative to control; assay type: cell-based; conditions: read-out: Activity
[13] = Phototoxicity in human HaCaT cells assessed as cell viability at 125 uM preincubated for 60 mins followed by 7.5 J/cm2 UVA irradiation and measured after 24 hrs by neutral red uptake assay relative to control; assay type: cell-based; conditions: read-out: Activity
[14] = Phototoxicity in human NHDF cells assessed as cell viability at 125 uM preincubated for 60 mins followed by 5 J/cm2 UVA irradiation and measured after 24 hrs by neutral red uptake assay relative to control; assay type: cell-based; conditions: read-out: Activity
[15] = Phototoxicity in human NHDF cells assessed as cell viability at 3.9 uM preincubated for 60 mins followed by 5 J/cm2 UVA irradiation and measured after 24 hrs by neutral red uptake assay relative to control; assay type: cell-based; conditions: read-out: Activity
[16] = Cytotoxicity in human NHDF cells assessed as cell viability at 15.6 uM after 24 hrs by neutral red uptake assay relative to control; assay type: cell-based; conditions: read-out: Activity
[17] = Cytotoxicity in human NHDF cells assessed as cell viability at 31.3 uM after 24 hrs by neutral red uptake assay relative to control; assay type: cell-based; conditions: read-out: Activity
[18] = test system: BJ; experiment: Cytotoxicity in human BJ cells assessed as reduction in cell viability at 50 uM after 24 hrs by resazurin dye-based fluorescence assay relative to control
[19] = Phototoxicity in human HaCaT cells assessed as cell viability at 31.3 uM preincubated for 60 mins followed by 7.5 J/cm2 UVA irradiation and measured after 24 hrs by neutral red uptake assay relative to control; assay type: cell-based; conditions: read-out: Activity
[20] = Phototoxicity in human NHDF cells assessed as cell viability at 31.3 uM preincubated for 60 mins followed by 5 J/cm2 UVA irradiation and measured after 24 hrs by neutral red uptake assay relative to control; assay type: cell-based; conditions: read-out: Activity
[21] = Cytotoxicity in human NHDF cells assessed as cell viability at 7.8 uM after 24 hrs by neutral red uptake assay relative to control; assay type: cell-based; conditions: read-out: Activity
[22] = test system: Caenorhabditis elegans; experiment: Protection against juglone-induced oxidative stress in Caenorhabditis elegans BA17 (fem-1) at 100 uM preincubated for 3 days followed by juglone addition measured every hour for 12 ro 14 hrs by inverted microscopic analysis; assay type: functional, organism-based
[23] = test system: HaCaT; experiment: Cytoprotection against phototoxicity in human HaCaT cells assessed as increase in cell viability at 3.9 uM preincubated for 60 mins followed by 10 J/cm2 UVA irradiation and measured after 24 hrs by neutral red uptake assay; assay type: functional, cell-based
[24] = Phototoxicity in human NHDF cells assessed as cell viability at 7.8 uM preincubated for 60 mins followed by 5 J/cm2 UVA irradiation and measured after 24 hrs by neutral red uptake assay relative to control; assay type: cell-based; conditions: read-out: Activity
[25] = Cytotoxicity in human NHDF cells assessed as cell viability at 125 uM after 24 hrs by neutral red uptake assay relative to control; assay type: cell-based; conditions: read-out: Activity
[26] = test system: Nicotiana tabacum; experiment: Growth promoting activity in tobacco callus assessed as callus weight at 10^-5 mol/L after 4 weeks relative to control; assay type: functional
[27] = Stability of the compound in pH 4 solution at 10^-4 M after 1 hr by HPLC analysis; assay type: physicochemical; conditions: read-out: Stability
[28] = Phototoxicity in human NHDF cells assessed as cell viability at 62.5 uM preincubated for 60 mins followed by 5 J/cm2 UVA irradiation and measured after 24 hrs by neutral red uptake assay relative to control; assay type: cell-based; conditions: read-out: Activity
[29] = test system: Triticum aestivum; experiment: Anti-senescent activity in leaf of Triticum aestivum cv. Hereward seedlings by measuring chlorophyll retention at 10^-4 mol/L after 4 days relative to control; assay type: functional
[30] = Stability of the compound in pH 3 solution at 10^-4 M after 1 hr by HPLC analysis; assay type: physicochemical; conditions: read-out: Stability
[31] = Stability of the compound in pH 6 solution at 10^-4 M after 1 hr by HPLC analysis; assay type: physicochemical; conditions: read-out: Stability
[32] = Cytotoxicity in human HaCaT cells assessed as cell viability at 7.8 uM after 24 hrs by neutral red uptake assay relative to control; assay type: cell-based; conditions: read-out: Activity
[33] = Antioxidant activity assessed as trolox equivalent of AAPH-induced radical scavenging activity at 1 uM pretreated for 15 mins followed by […] challenge measured every 3 mins over 90 mins by ORAC-FL assay; assay type: functional
[34] = Phototoxicity in human HaCaT cells assessed as cell viability at 7.8 uM preincubated for 60 mins followed by 7.5 J/cm2 UVA irradiation and measured after 24 hrs by neutral red uptake assay relative to control; assay type: cell-based; conditions: read-out: Activity
[35] = Cytotoxicity in human NHDF cells assessed as cell viability at 3.9 uM after 24 hrs by neutral red uptake assay relative to control; assay type: cell-based; conditions: read-out: Activity
[36] = Cytotoxicity in human NHDF cells assessed as cell viability at 62.5 uM after 24 hrs by neutral red uptake assay relative to control; assay type: cell-based; conditions: read-out: Activity
[37] = Stability of the compound in pH 5 solution at 10^-4 M after 1 hr by HPLC analysis; assay type: physicochemical; conditions: read-out: Stability
[38] = Stability of the compound in pH 6 solution at 10^-4 M after 24 hrs by HPLC analysis; assay type: physicochemical; conditions: read-out: Stability
[39] = Phototoxicity in human HaCaT cells assessed as cell viability at 3.9 uM preincubated for 60 mins followed by 7.5 J/cm2 UVA irradiation and measured after 24 hrs by neutral red uptake assay relative to control; assay type: cell-based; conditions: read-out: Activity
[40] = Phototoxicity in human HaCaT cells assessed as cell viability at 62.5 uM preincubated for 60 mins followed by 7.5 J/cm2 UVA irradiation and measured after 24 hrs by neutral red uptake assay relative to control; assay type: cell-based; conditions: read-out: Activity
[41] = Stability of the compound in pH 4 solution at 10^-4 M after 24 hrs by HPLC analysis; assay type: physicochemical; conditions: read-out: Stability
[42] = test system: NHDF; experiment: Cytoprotection against phototoxicity in human NHDF cells assessed as increase in cell viability at 3.9 to 31.3 uM preincubated for 60 mins followed by 7.5 J/cm2 UVA irradiation and measured after 24 hrs by neutral red uptake assay; assay type: functional, cell-based
[43] = test system: HaCaT; experiment: Cytoprotection against phototoxicity in human HaCaT cells assessed as increase in cell viability at 3.9 to 31.3 uM preincubated for 60 mins followed by 10 J/cm2 UVA irradiation and measured after 24 hrs by neutral red uptake assay; assay type: functional, cell-based
[44] = test system: NHDF; experiment: Cytoprotection against phototoxicity in human NHDF cells assessed as increase in cell viability at 3.9 to 31.3 uM preincubated for 60 mins followed by 150 mJ/cm2 UVB irradiation and measured after 24 hrs by neutral red uptake assay; assay type: functional, cell-based
[45] = test system: Amaranthus caudatus; experiment: Growth promoting activity in Amaranthus caudatus var. atropurpurea seeds by measuring betacyanin at 10^-5 mol/L after 48 hrs relative to control; assay type: functional

Clc1nc(NCc2ccco2)c2ncn(C3CCCO3)c2n1 (stereo not given)
viability at 24 h, 15.6 µM [1]: 109% | viability at 24 h, 3.9 µM [2]: 107% | viability at 24 h, 125 µM [3]: 105% | Activity [4]: 88% | viability at 24 h, 15.6 µM [5]: 120% | viability at 24 h, 31.3 µM [6]: 109% | remaining at 24 h, 100 µM [7]: 0.9% | Activity [8]: Active | viability at 24 h, 15.6 µM [9]: 103% | Activity [10]: < 10% | remaining at 24 h, 100 µM [11]: 92.9% | viability at 24 h, 62.5 µM [12]: 110% | viability at 24 h, 125 µM [13]: 104% | viability at 24 h, 125 µM [14]: 97% | viability at 24 h, 3.9 µM [15]: 100% | viability at 24 h, 15.6 µM [16]: 104% | viability at 24 h, 31.3 µM [17]: 105% | Activity [18]: < 10% | viability at 24 h, 31.3 µM [19]: 119% | viability at 24 h, 31.3 µM [20]: 103% | viability at 24 h, 7.8 µM [21]: 104% | Activity [22]: Active | Activity [23]: Active | viability at 24 h, 7.8 µM [24]: 102% | viability at 24 h, 125 µM [25]: 101% | Activity [26]: 112% | remaining at 1 h, 100 µM [27]: 100% | viability at 24 h, 62.5 µM [28]: 103% | Activity [29]: 75% | remaining at 1 h, 100 µM [30]: 98.8% | remaining at 1 h, 100 µM [31]: 100% | viability at 24 h, 7.8 µM [32]: 107% | Activity [33]: < 0.05 equiv | viability at 24 h, 7.8 µM [34]: 120% | viability at 24 h, 3.9 µM [35]: 100% | viability at 24 h, 62.5 µM [36]: 106% | remaining at 1 h, 100 µM [37]: 100% | remaining at 24 h, 100 µM [38]: 100% | viability at 24 h, 3.9 µM [39]: 116% | viability at 24 h, 62.5 µM [40]: 116% | remaining at 24 h, 100 µM [41]: 51.7%

O=C(/C=C/c1ccc(O)c(O)c1)O[C@H](Cc1ccc(O)c(O)c1)C(=O)O
Activity [42]: Active | Activity [43]: Active | Activity [23]: Active | Activity [44]: Active | Activity [33]: 9.14 equiv

c1coc(CNc2ncnc3[nH]cnc23)c1 [KINETIN]
Activity [42]: Active | Activity [45]: 68% | Activity [26]: 101% | Activity [44]: Active | Activity [29]: 98% | Activity [33]: 0.71 equiv

Cc1ccsc1CNc1ncnc2c1ncn2C1CCCO1 (stereo not given)
Activity [26]: 99% | Activity [29]: 110%

c1ccc(CNc2ncnc3[nH]cnc23)cc1 [6-BENZYLAMINOPURINE]
Activity [26]: 20%

OCc1ccc(CNc2ncnc3c2ncn3C2CCCO2)o1 (stereo not given)
viability at 24 h, 15.6 µM [1]: 102% | viability at 24 h, 3.9 µM [2]: 100% | viability at 24 h, 125 µM [3]: 110% | viability at 24 h, 15.6 µM [5]: 108% | viability at 24 h, 31.3 µM [6]: 108% | viability at 24 h, 15.6 µM [9]: 102% | Activity [10]: < 10% | viability at 24 h, 62.5 µM [12]: 106% | viability at 24 h, 125 µM [13]: 125% | viability at 24 h, 125 µM [14]: 112% | viability at 24 h, 3.9 µM [15]: 101% | viability at 24 h, 15.6 µM [16]: 104% | viability at 24 h, 31.3 µM [17]: 108% | Activity [18]: < 10% | viability at 24 h, 31.3 µM [19]: 118% | viability at 24 h, 31.3 µM [20]: 107% | viability at 24 h, 7.8 µM [21]: 105% | Activity [23]: Active | viability at 24 h, 7.8 µM [24]: 107% | viability at 24 h, 125 µM [25]: 110% | Activity [26]: 103% | viability at 24 h, 62.5 µM [28]: 111% | Activity [29]: 75% | viability at 24 h, 7.8 µM [32]: 100% | Activity [33]: 0.77 equiv | viability at 24 h, 7.8 µM [34]: 111% | viability at 24 h, 3.9 µM [35]: 103% | viability at 24 h, 62.5 µM [36]: 107% | viability at 24 h, 3.9 µM [39]: 104% | viability at 24 h, 62.5 µM [40]: 121%
